From article PMC10746543, “Design principles for cyclin K molecular glue degraders” (Nature Chemical Biology, 2023)
Where “and” joins values, the source holds several entries; their conditions need not be identical. Equal entries are not always repeated. Where two headings read alike, the source gives them in different places.

Columns and labels:
[1] = tested on: cyclin K–eGFP degradation reporter; test: Cyclin K reporter stability analysis (dual-color cyclin K–eGFP reporter); type: cell-based, human; conditions: source data sheet correlations; read-out: DC50
Method in brief: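 Cells (HEK293T–Cas9, reporter-expressing) at 1 × 10^6 ml^−1; 5 h compound or DMSO; flow cytometry; gMFI eGFP ÷ mCherry on round mCherry-positive events; normalized to 3 DMSO controls.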

CDK12–cyclin K = CDK12–cyclin K (Homo sapiens, UniProt Q9NYV4); test: Lanthascreen kinase binding assay, CDK12; conditions: for Lanthascreen raw signal, sheet CDK12: series r1, duplicates
Experimental: (§1) Lanthascreen experiments were performed using commercially available reagents (Thermo Fisher) and according to the manufacturer’s instructions.

HEK293T cells = test: Drug sensitivity assay (CellTiter-Glo viability) with or without MLN4924 pretreatment; type: cell-based, human; conditions: for EC50: Homo sapiens, HEK-293T
Method in brief: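 Viability of HEK293T–Cas9 cells was compared after 3-day drug treatment with or without 100 nM MLN4924 pretreatment (2 h, versus DMSO). Values are CellTiter-Glo signals relative to DMSO controls.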

CDK2–cyclin A = target: T1, CDK2–cyclin A (Homo sapiens, UniProt P24941); test: Lanthascreen kinase binding assay, CDK2; conditions: for Lanthascreen signal, sheet CDK2: raw replicates, experiment r1-r11
T1 construct: purchased Thermo Fisher
Experimental: as §1

CDK12–cyclin K and DDB1 = target: T2, CDK12–cyclin K and DDB1 (Homo sapiens, UniProt Q16531+Q9NYV4, K965R); test: TR-FRET ternary complex formation assay (compound titration); type: binding
T2 construct: His6–CDK12 (a.a. 713–1,052); full-length or beta-propeller B domain deletion (ΔBPB: a.a. 396–705 deleted) constructs of His6–DDB1ΔBPB, StrepII–Avi–DDB1, or His6–Spy–DDB1; made in house; host or cells: Trichoplusia ni High Five insect cells (baculovirus)
Method in brief: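 Delayed (70 μs) time-resolved read; FRET computed as 520 nm over 490 nm emission.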

CDK9–cyclin T = target: T3, CDK9–cyclin T (Homo sapiens, UniProt P50750); test: Lanthascreen kinase binding assay, CDK9; conditions: for Lanthascreen TR-FRET signal (raw ratio), sheet CDK9: first titration set (r1), duplicates
T3 construct: purchased Thermo Fisher
Experimental: as §1

T2 sequence (Q9NYV4 713-1052 K965R): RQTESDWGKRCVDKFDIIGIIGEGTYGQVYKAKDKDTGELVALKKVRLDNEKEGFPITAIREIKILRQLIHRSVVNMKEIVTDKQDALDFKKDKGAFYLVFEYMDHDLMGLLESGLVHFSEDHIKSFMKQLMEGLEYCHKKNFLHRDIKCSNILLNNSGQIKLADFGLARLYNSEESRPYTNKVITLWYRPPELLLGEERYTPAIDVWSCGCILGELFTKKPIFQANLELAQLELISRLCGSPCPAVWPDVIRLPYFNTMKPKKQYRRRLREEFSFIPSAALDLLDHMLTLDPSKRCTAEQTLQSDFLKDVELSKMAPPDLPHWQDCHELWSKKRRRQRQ
T2 sequence (O75909 1-267 partner): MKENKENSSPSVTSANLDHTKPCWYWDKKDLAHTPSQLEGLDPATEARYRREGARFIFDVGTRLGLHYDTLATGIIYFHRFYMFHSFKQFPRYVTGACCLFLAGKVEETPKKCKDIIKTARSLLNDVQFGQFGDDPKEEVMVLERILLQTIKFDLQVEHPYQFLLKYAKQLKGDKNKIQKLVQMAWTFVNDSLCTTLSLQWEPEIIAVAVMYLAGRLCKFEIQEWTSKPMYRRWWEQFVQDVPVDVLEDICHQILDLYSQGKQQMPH
T2 sequence (Q16531 whole entry): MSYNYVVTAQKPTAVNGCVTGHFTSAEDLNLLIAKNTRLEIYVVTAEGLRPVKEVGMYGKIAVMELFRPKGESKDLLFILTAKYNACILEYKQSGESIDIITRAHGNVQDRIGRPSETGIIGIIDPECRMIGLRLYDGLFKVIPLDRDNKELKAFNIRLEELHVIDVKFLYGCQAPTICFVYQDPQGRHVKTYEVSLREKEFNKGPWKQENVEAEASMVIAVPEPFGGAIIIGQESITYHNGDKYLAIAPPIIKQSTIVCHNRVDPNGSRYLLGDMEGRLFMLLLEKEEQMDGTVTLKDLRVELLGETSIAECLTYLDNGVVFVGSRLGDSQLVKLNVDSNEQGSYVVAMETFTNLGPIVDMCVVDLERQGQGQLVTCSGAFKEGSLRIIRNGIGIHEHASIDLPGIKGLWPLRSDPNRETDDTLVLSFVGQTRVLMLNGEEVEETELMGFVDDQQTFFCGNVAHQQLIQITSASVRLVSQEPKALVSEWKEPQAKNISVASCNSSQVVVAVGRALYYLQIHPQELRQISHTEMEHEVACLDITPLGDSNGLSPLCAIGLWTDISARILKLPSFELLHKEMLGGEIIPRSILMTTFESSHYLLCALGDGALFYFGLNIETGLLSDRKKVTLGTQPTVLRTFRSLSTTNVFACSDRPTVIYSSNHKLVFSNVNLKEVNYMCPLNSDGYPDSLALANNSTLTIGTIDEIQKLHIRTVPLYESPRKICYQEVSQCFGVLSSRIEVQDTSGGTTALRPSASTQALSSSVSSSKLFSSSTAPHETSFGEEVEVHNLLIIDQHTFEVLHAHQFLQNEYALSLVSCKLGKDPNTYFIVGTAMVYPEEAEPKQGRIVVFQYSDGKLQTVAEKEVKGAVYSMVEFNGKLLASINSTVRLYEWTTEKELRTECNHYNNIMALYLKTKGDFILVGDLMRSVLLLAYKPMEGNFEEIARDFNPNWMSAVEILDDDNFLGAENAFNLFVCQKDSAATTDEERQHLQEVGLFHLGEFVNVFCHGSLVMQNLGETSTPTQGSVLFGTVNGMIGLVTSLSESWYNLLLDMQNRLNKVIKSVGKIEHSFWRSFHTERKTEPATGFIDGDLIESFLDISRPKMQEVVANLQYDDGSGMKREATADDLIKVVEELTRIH
T3 sequence (P50750 whole entry): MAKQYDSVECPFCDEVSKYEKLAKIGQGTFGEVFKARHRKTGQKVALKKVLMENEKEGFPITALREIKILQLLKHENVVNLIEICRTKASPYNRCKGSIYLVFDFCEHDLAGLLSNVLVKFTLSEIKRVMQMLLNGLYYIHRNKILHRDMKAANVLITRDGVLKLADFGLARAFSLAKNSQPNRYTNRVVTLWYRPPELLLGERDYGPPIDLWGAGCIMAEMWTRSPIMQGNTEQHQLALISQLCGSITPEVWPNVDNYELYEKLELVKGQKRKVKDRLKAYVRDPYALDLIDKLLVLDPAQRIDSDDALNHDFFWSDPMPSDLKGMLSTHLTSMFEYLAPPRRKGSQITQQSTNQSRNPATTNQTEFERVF
T3 sequence (O60563 whole entry partner): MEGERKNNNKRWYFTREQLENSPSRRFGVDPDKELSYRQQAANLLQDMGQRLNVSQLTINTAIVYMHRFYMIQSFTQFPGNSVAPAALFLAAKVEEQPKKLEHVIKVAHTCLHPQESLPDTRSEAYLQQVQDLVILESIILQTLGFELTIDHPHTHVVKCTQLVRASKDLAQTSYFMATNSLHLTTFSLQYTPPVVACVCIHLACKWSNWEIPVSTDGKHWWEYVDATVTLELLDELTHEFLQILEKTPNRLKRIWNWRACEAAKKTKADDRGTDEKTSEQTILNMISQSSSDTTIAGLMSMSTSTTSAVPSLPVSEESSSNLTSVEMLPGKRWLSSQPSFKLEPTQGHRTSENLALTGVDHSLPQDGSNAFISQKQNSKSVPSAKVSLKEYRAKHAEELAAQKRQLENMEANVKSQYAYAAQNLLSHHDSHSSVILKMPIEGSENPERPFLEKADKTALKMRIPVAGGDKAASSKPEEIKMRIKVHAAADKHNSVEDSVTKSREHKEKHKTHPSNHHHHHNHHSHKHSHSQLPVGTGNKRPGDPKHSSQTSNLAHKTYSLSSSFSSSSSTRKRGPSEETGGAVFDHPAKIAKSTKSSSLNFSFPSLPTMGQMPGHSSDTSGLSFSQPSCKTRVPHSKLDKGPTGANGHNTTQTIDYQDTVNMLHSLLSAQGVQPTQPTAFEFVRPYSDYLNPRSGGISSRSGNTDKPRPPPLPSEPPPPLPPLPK
Sequence of CDK12–cyclin K (Q9NYV4 713-1052): as the sequence (Q9NYV4 713-1052 K965R) above, with R253K counted along it
Sequence of CDK12–cyclin K (O75909 1-267 partner limits assumed): as the sequence (O75909 1-267 partner) above

## COc1ccc(C)cc1N1C[C@@H](C(=O)Nc2nc3ccccc3[nH]2)CC1=O [Z11]
[1]
  DC50: 0.436 µM
CDK12–cyclin K; Supplementary Table 2, read-out: Lanthascreen IC50 [nM] CDK12
  IC50: 3220 nM
CDK12–cyclin K; compound 1.02544 nM
  Lanthascreen raw signal, sheet CDK12: 0.009169 and 0.008974
CDK12–cyclin K; compound 3.15521 nM
  Lanthascreen raw signal, sheet CDK12: 0.009884 and 0.009801
CDK12–cyclin K; compound 9.46563 nM
  Lanthascreen raw signal, sheet CDK12: 0.008091 and 0.0101
CDK12–cyclin K; compound 31.5521 nM
  Lanthascreen raw signal, sheet CDK12: 0.00922 and 0.009965
CDK12–cyclin K; compound 99.3891 nM
  Lanthascreen raw signal, sheet CDK12: 0.01122 and 0.009922
CDK12–cyclin K; compound 315.521 nM
  Lanthascreen raw signal, sheet CDK12: 0.009639 and 0.01064
CDK12–cyclin K; compound 3155.21 nM
  Lanthascreen raw signal, sheet CDK12: 0.00898 and 0.008785
CDK12–cyclin K; compound 10002 nM
  Lanthascreen raw signal, sheet CDK12: 0.007994 and 0.007932
HEK293T cells; Supplementary Fig. 5, HEK293T, CellTiter Glo, 72h, pre-treatment with 100 nM MLN4924, read-out: Viability EC50, with MLN4924
  EC50: 1290 µM
HEK293T cells; Supplementary Table 2, HEK293T viability, 72 h, compound alone, read-out: Cellular assays EC50
  EC50: 1.07 µM
HEK293T cells; Supplementary Table 2, MLN4924-mediated cytotoxicity rescue, 10 µM used where n.d.
  Toxicity rescue: 838%
CDK2–cyclin A; Compound 1.02544 nM
  Lanthascreen signal, sheet CDK2: 0.007579 and 0.009377
CDK2–cyclin A; Compound 3.15521 nM
  Lanthascreen signal, sheet CDK2: 0.00995 and 0.009356
CDK2–cyclin A; Compound 9.46563 nM
  Lanthascreen signal, sheet CDK2: 0.01093 and 0.01062
CDK2–cyclin A; Compound 31.5521 nM
  Lanthascreen signal, sheet CDK2: 0.01004 and 0.01088
CDK2–cyclin A; Compound 99.3891 nM
  Lanthascreen signal, sheet CDK2: 0.009456 and 0.01029
CDK2–cyclin A; Compound 315.521 nM
  Lanthascreen signal, sheet CDK2: 0.0104 and 0.01024
CDK2–cyclin A; Compound 3155.21 nM
  Lanthascreen signal, sheet CDK2: 0.01031 and 0.01162
CDK2–cyclin A; Compound 10002 nM
  Lanthascreen signal, sheet CDK2: 0.01102 and 0.01013
CDK2–cyclin A; Lanthascreen, average, Extended Data Fig. 8, read-out: CDK2 IC50
  IC50: > 10000 nM
CDK2–cyclin A; Supplementary Table 2, read-out: Lanthascreen IC50 [nM] CDK2
  IC50: > 10000 nM
CDK12–cyclin K and DDB1; compound concentration 3.6 nM
  TR-FRET signal: 0.4206 and 0.3705
CDK12–cyclin K and DDB1; compound concentration 4.68 nM
  TR-FRET signal: 0.1751 and 0.204
CDK12–cyclin K and DDB1; compound concentration 15.84 nM
  TR-FRET signal: 0.7002 and 0.5772
CDK12–cyclin K and DDB1; compound concentration 21.6 nM
  TR-FRET signal: 0.3896 and 0.4045
CDK12–cyclin K and DDB1; compound concentration 36 nM
  TR-FRET signal: 0.7669 and 0.7566
CDK12–cyclin K and DDB1; compound concentration 62.6401 nM
  TR-FRET signal: 1.529 and 1.274
CDK12–cyclin K and DDB1; compound concentration 79.2001 nM
  TR-FRET signal: 1.336 and 1.393
CDK12–cyclin K and DDB1; compound concentration 158.4 nM
  TR-FRET signal: 1.979 and 2.065
CDK12–cyclin K and DDB1; compound concentration 244.8 nM
  TR-FRET signal: 3.0134 and 2.769
CDK12–cyclin K and DDB1; compound concentration 309.6 nM
  TR-FRET signal: 2.635 and 2.78
CDK12–cyclin K and DDB1; compound concentration 626.401 nM
  TR-FRET signal: 3.319 and 3.352
CDK12–cyclin K and DDB1; compound concentration 993.601 nM
  TR-FRET signal: 3.805 and 3.416
CDK12–cyclin K and DDB1; compound concentration 1252.8 nM
  TR-FRET signal: 3.754 and 3.678
CDK12–cyclin K and DDB1; compound concentration 2001.6 nM
  TR-FRET signal: 4.058 and 3.866
CDK12–cyclin K and DDB1; compound concentration 2448 nM
  TR-FRET signal: 3.936 and 3.906
CDK12–cyclin K and DDB1; compound concentration 9936.01 nM
  TR-FRET signal: 4.2719 and 4.125
CDK12–cyclin K and DDB1; compound concentration 20016 nM
  TR-FRET signal: 4.262 and 4.289
CDK12–cyclin K and DDB1; in vitro complex formation, 50 nM CDK12–cyclin K, 100 nM DDB1, text and figures, read-out: TR-FRET EC50
  EC50: 0.178 ± 0.014 µM
CDK12–cyclin K and DDB1; sheet MOESM7, read-out: log TR-FRET EC50 (converted)
  EC50: 0.178 µM
CDK12–cyclin K and DDB1; source data sheet correlations, read-out: TR-FRET EC50
  EC50: 0.178 µM
CDK9–cyclin T; Lanthascreen, average, Extended Data Fig. 8, read-out: CDK9 IC50
  IC50: > 10000 nM
CDK9–cyclin T; Supplementary Table 2, read-out: Lanthascreen IC50 [nM] CDK9
  IC50: > 10000 nM
CDK9–cyclin T; compound 1.02544 nM
  Lanthascreen TR-FRET signal (raw ratio), sheet CDK9: 0.0144 and 0.01353
CDK9–cyclin T; compound 3.15521 nM
  Lanthascreen TR-FRET signal (raw ratio), sheet CDK9: 0.01322 and 0.01379
CDK9–cyclin T; compound 9.46563 nM
  Lanthascreen TR-FRET signal (raw ratio), sheet CDK9: 0.01482 and 0.01443
CDK9–cyclin T; compound 31.5521 nM
  Lanthascreen TR-FRET signal (raw ratio), sheet CDK9: 0.01456 and 0.01497
CDK9–cyclin T; compound 99.3891 nM
  Lanthascreen TR-FRET signal (raw ratio), sheet CDK9: 0.0144 and 0.01356
CDK9–cyclin T; compound 315.521 nM
  Lanthascreen TR-FRET signal (raw ratio), sheet CDK9: 0.01557 and 0.0126
CDK9–cyclin T; compound 3155.21 nM
  Lanthascreen TR-FRET signal (raw ratio), sheet CDK9: 0.01348 and 0.01509
CDK9–cyclin T; compound 10002 nM
  Lanthascreen TR-FRET signal (raw ratio), sheet CDK9: 0.008815 and 0.01082
